US11254668B2, “Pyrazolo[1,5-A]pyrazin-4-yl and related derivatives” (Pfizer Inc., priority 2017, dated 2022)
Read-outs that look alike come from different tables or passages of the source.

Assays:
Assay type in all cases: biochemical
[1] = biological target: TYK2 (Homo sapiens (Human), UniProt P29597); experiment: JAK Caliper Enzyme Assay at 1 mM ATP, TYK2
How it was run: (§1)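 First, compound was incubated at room temperature with recombinant human kinase domain, a synthetic peptide and 1 mM ATP until 20–30% of peptide was phosphorylated. Next, EDTA stopped the reaction. Finally, electrophoretic separation quantified product, and percent effect relative to controls was plotted against concentration.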

[2] = biological target: JAK1 (Homo sapiens (Human), UniProt P23458); experiment: JAK Caliper Enzyme Assay at 1 mM ATP, JAK1
Sequence of JAK1 (P23458 875-1153): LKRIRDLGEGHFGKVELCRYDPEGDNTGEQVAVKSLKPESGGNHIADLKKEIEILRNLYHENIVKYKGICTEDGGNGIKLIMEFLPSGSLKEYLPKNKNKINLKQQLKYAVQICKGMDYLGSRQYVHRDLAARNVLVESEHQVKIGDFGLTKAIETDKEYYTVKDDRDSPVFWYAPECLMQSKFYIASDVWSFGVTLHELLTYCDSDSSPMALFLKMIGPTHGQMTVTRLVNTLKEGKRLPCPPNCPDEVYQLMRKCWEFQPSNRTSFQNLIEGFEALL
How it was run: (§2)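 IC50 (nM) derived from percent conversion of fluorescently labelled peptide, measured by Caliper LabChip mobility-shift separation after EDTA stop. Each JAK family kinase domain (human, recombinant) run at 1 mM ATP and room temperature, conditions set to 20-30% product; DMSO wells define uninhibited baseline.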

[3] = biological target: JAK2 (Homo sapiens (Human), UniProt O60674); experiment: JAK Caliper Enzyme Assay at 1 mM ATP, JAK2
Sequence of JAK2 (O60674 849-1124): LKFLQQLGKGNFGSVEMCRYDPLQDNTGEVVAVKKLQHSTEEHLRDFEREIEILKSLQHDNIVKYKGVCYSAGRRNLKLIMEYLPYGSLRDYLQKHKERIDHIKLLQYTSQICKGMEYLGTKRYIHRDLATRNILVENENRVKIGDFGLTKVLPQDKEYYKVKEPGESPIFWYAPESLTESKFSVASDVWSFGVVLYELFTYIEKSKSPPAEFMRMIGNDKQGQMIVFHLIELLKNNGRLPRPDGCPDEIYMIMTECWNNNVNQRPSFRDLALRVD
How it was run: as §1

[4] = biological target: JAK3 (Homo sapiens (Human), UniProt P52333); experiment: JAK Caliper Enzyme Assay at 1 mM ATP, JAK3
Sequence of JAK3 (P52333 822-1111): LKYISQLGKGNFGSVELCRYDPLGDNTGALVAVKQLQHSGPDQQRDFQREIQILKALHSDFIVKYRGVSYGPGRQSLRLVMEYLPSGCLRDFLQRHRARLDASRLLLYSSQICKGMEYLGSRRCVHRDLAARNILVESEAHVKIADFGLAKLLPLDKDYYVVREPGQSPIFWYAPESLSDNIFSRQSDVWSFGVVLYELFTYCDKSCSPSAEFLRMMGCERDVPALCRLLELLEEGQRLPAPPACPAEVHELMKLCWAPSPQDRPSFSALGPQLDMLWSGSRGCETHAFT
How it was run: as §2

Sequence of TYK2 (P29597 897-1176): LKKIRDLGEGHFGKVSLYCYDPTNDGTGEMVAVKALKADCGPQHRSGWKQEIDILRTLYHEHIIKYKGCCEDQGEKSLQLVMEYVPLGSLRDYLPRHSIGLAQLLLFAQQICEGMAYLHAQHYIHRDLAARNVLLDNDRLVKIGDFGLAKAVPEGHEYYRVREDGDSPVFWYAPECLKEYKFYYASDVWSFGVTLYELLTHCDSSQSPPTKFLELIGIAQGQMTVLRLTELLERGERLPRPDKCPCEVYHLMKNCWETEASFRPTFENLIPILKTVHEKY

Row | Compound | IC50 [1] [nM] | IC50 [2] [nM] | IC50 [3] [nM] | IC50 [4] [nM] | IC50 ([1]; JAK Caliper enzyme assay) [nM] | IC50 ([2]; JAK Caliper enzyme assay) [nM] | IC50 ([3]; JAK Caliper enzyme assay) [nM] | IC50 ([4]; JAK Caliper enzyme assay) [nM]
1 | CCN1CC(CC#N)(n2ccc(-c3nc(-c4ccc(O)nc4)cc4ncccc34)n2)C1 [Example 184] | 221 | 4030 | 4030 | > 10000 |  |  |  | 
2 | CS(=O)(=O)N1CC(CC#N)(n2ccc(-c3cc(-c4cc[nH]n4)cc4ncccc34)n2)C1 [Example 283, [1-(methylsulfonyl)-3-{3-[7-(1H-pyrazol-3-yl)quinolin-5-yl]-1H-pyrazol-1-yl}azetidin-3-yl]acetonitrile] | 176 | 5670 | 2000 | > 10000 |  |  |  | 
3 | N#CC[C@]1(n2ncc(-c3cc(-c4cnc5ncccn45)cc4ncccc34)n2)C[C@@H](C#N)C1 [Example 417, cis-3-(cyanomethyl)-3-{4-[7-(imidazo[1,2-a]pyrimidin-3-yl)quinolin-5-yl]-2H-1,2,3-triazol-2-yl}cyclobutanecarbonitrile] |  |  |  |  | 110 | 7470 | 291 | > 10000
4 | CNC(=O)[C@H]1C[C@](CC#N)(n2ccc(-c3nc(-c4ccn[nH]4)cc4ncccc34)n2)C1 [Example 27, trans-3-(cyanomethyl)-N-methyl-3-{3-[7-(1H-pyrazol-5-yl)-1,6-naphthyridin-5-yl]-1H-pyrazol-1-yl}cyclobutanecarboxamide] | 7560 | > 10000 | > 10000 | > 10000 |  |  |  | 
5 | CS(=O)(=O)N1CC(CC#N)(n2ncc(-c3cc(-c4c[nH]c(=O)[nH]c4=O)cc4ncccc34)n2)C1 [Example 414, [3-{4-[7-(2,4-dioxo-1,2,3,4-tetrahydropyrimidin-5-yl)quinolin-5-yl]-2H-1,2,3-triazol-2-yl}-1-(methylsulfonyl)azetidin-3-yl]acetonitrile] |  |  |  |  | 276 | > 10000 | 6170 | > 10000
6 | Cn1ccc(-c2cc(-c3cnn([C@]4(CC#N)C[C@H](C#N)C4)n3)c3cccnc3c2)n1 [Example 313, cis-3-(cyanomethyl)-3-{4-[7-(1-methyl-1H-pyrazol-3-yl)quinolin-5-yl]-2H-1,2,3-triazol-2-yl}cyclobutanecarbonitrile] | 25 | 486 | 79 | 5470 |  |  |  | 
7 | CS(=O)(=O)N1CC(CC#N)(n2ncc(-c3cc(-c4ccc(O)c(F)c4)cc4ncccc34)n2)C1 [Example 444] |  |  |  |  | 77 | 1240 | 1180 | > 10000
8 | N#CC[C@]1(n2ccc(-c3nc(-c4cc(N)cnn4)cc4ncccc34)n2)C[C@@H](C#N)C1 [Example 242, cis-3-{3-[7-(5-aminopyridazin-3-yl)-1,6-naphthyridin-5-yl]-1H-pyrazol-1-yl}-3-(cyanomethyl)cyclobutanecarbonitrile] | 503 | > 10000 | 3770 | > 10000 |  |  |  | 
9 | N#CC[C@]1(n2ccc(-c3nc(-c4cccc(CO)n4)cc4ncccc34)n2)C[C@@H](C#N)C1 [Example 212, cis-3-(cyanomethyl)-3-(3-{7-[6-(hydroxymethyl)pyridin-2-yl]-1,6-naphthyridin-5-yl}-1H-pyrazol-1-yl)cyclobutanecarbonitrile] | 198 | 2950 | 900 | > 10000 |  |  |  | 
10 | N#CCC1(n2ccc(-c3nc(-c4cncnc4)cc4ncccc34)n2)CN(CC(F)(F)F)C1 [Example 234, [3-{3-[7-(pyrimidin-5-yl)-1,6-naphthyridin-5-yl]-1H-pyrazol-1-yl}-1-(2,2,2-trifluoroethyl)azetidin-3-yl]acetonitrile] | 2660 | > 10000 | > 10000 | > 10000 |  |  |  | 
11 | CS(=O)(=O)N1CC(CC#N)(n2ccc(-c3nc(-c4cnn(C(F)(F)F)c4)cc4ncccc34)n2)C1 [Example 118, [1-(methylsulfonyl)-3-(3-{7-[1-(trifluoromethyl)-1H-pyrazol-4-yl]-1,6-naphthyridin-5-yl}-1H-pyrazol-1-yl)azetidin-3-yl]acetonitrile] | 843 | 9060 | 4160 | > 10000 |  |  |  | 

The remaining lines, values ahead:

Row | IC50 [1] [nM] | IC50 [2] [nM] | IC50 [3] [nM] | IC50 [4] [nM] | IC50 ([1]; JAK Caliper enzyme assay) [nM] | IC50 ([2]; JAK Caliper enzyme assay) [nM] | IC50 ([3]; JAK Caliper enzyme assay) [nM] | IC50 ([4]; JAK Caliper enzyme assay) [nM] | Compound
12 | 99 | 2580 | 670 | > 10000 |  |  |  |  | N#CC[C@]1(n2ncc(-c3cc(-c4cccc(N)n4)cc4ncccc34)n2)C[C@H](C#N)C1 [Example 357, trans-3-{4-[7-(6-aminopyridin-2-yl)quinolin-5-yl]-2H-1,2,3-triazol-2-yl}-3-(cyanomethyl)cyclobutanecarbonitrile]
13 | 49 | 1340 | 778 | > 10000 |  |  |  |  | CO[C@H]1C[C@@](CC#N)(n2ccc(-c3nc(-c4ccc(=O)[nH]c4)cc4ncccc34)n2)C1 [Example 247, (cis-3-methoxy-1-{3-[7-(6-oxo-1,6-dihydropyridin-3-yl)-1,6-naphthyridin-5-yl]-1H-pyrazol-1-yl}cyclobutyl)acetonitrile]
14 | 156 | 8870 | 2560 | > 10000 |  |  |  |  | Cn1ccc(-c2cc3ncccc3c(-c3ccn(C4(CC#N)CN(CC(F)(F)F)C4)n3)n2)n1 [Example 55, [3-{3-[7-(1-methyl-1H-pyrazol-3-yl)-1,6-naphthyridin-5-yl]-1H-pyrazol-1-yl}-1-(2,2,2-trifluoroethyl)azetidin-3-yl]acetonitrile]
15 | 27 | 458 | 139 | 9060 |  |  |  |  | CCn1cc(-c2cc3ncccc3c(-c3ccn(C4(CC#N)CN(CC(F)(F)F)C4)n3)n2)cn1 [Example 111, [3-{3-[7-(1-ethyl-1H-pyrazol-4-yl)-1,6-naphthyridin-5-yl]-1H-pyrazol-1-yl}-1-(2,2,2-trifluoroethyl)azetidin-3-yl]acetonitrile]
16 |  |  |  |  | 2530 | > 10000 | 6290 | > 10000 | Cc1cncc(-c2cc(-c3cnn([C@]4(CC#N)C[C@H](C#N)C4)n3)c3cccnc3c2)n1 [Example 402, cis-3-(cyanomethyl)-3-{4-[7-(6-methylpyrazin-2-yl)quinolin-5-yl]-2H-1,2,3-triazol-2-yl}cyclobutanecarbonitrile]
17 |  |  |  |  | 660 | 7110 | 3050 | > 10000 | N#CC[C@]1(n2ncc(-c3cc(-c4cnccn4)cc4ncccc34)n2)C[C@@H](C#N)C1 [Example 392, cis-3-(cyanomethyl)-3-{4-[7-(pyrazin-2-yl)quinolin-5-yl]-2H-1,2,3-triazol-2-yl}cyclobutanecarbonitrile]
18 | 17 | 591 | 90 | 9610 |  |  |  |  | Cn1cc(-c2cc3ncccc3c(-c3ccn([C@]4(CC#N)C[C@@H](C#N)C4)n3)n2)cn1 [Example 102, trans-3-(cyanomethyl)-3-{3-[7-(1-methyl-1H-pyrazol-4-yl)-1,6-naphthyridin-5-yl]-1H-pyrazol-1-yl}cyclobutanecarbonitrile]
19 | 223 | > 10000 | 1370 | > 10000 |  |  |  |  | N#CCC1(n2ccc(-c3nc(-c4cn(C5COC5)cn4)cc4ncccc34)n2)CN(CC(F)(F)F)C1 [Example 144, [3-(3-{7-[1-(oxetan-3-yl)-1H-imidazol-4-yl]-1,6-naphthyridin-5-yl}-1H-pyrazol-1-yl)-1-(2,2,2-trifluoroethyl)azetidin-3-yl]acetonitrile]
20 | 7550 | > 10000 | > 10000 | > 10000 |  |  |  |  | Cc1onc(N)c1-c1cc2ncccc2c(-c2ccn(C3(CC#N)CN(S(C)(=O)=O)C3)n2)n1 [Example 147, [3-{3-[7-(3-amino-5-methyl-1,2-oxazol-4-yl)-1,6-naphthyridin-5-yl]-1H-pyrazol-1-yl}-1-(methylsulfonyl)azetidin-3-yl]acetonitrile]
21 | 39 | 2180 | 246 | > 10000 |  |  |  |  | Cn1nc(-c2cc3ncccc3c(-c3ccn([C@]4(CC#N)C[C@](C)(C#N)C4)n3)n2)cc1N [Example 67, cis-3-{3-[7-(5-amino-1-methyl-1H-pyrazol-3-yl)-1,6-naphthyridin-5-yl]-1H-pyrazol-1-yl}-3-(cyanomethyl)-1-methylcyclobutanecarbonitrile]
22 | 61 | 4110 | 558 | > 10000 |  |  |  |  | CO[C@H]1C[C@@](CC#N)(n2ccc(-c3nc(-c4cnn(C)c4)cc4ncccc34)n2)C1 [Example 110, (cis-3-methoxy-1-{3-[7-(1-methyl-1H-pyrazol-4-yl)-1,6-naphthyridin-5-yl]-1H-pyrazol-1-yl}cyclobutyl)acetonitrile]
23 | 74 | 1050 | 774 | > 10000 |  |  |  |  | N#CC[C@H]1C[C@](CC#N)(n2ccc(-c3nc(-c4cn[nH]c4)cc4ncccc34)n2)C1 [Example 79, 2,2′-(trans-1-{3-[7-(1H-pyrazol-4-yl)-1,6-naphthyridin-5-yl]-1H-pyrazol-1-yl}cyclobutane-1,3-diyl)diacetonitrile]
24 | 68 | 951 | 841 | > 10000 |  |  |  |  | N#CCC1(n2ccc(-c3nc(-c4ccc(N)nc4)cc4ncccc34)n2)CN(CC(F)(F)F)C1 [Example 192]
25 | 254 | 7720 | 1940 | > 10000 |  |  |  |  | CCN1CC(CC#N)(n2ccc(-c3nc(-c4cc(CO)[nH]n4)cc4ncccc34)n2)C1 [Example 47, [1-ethyl-3-(3-{7-[5-(hydroxymethyl)-1H-pyrazol-3-yl]-1,6-naphthyridin-5-yl}-1H-pyrazol-1-yl)azetidin-3-yl]acetonitrile]
